Active and inactive are the calls of the source. The calls are words filed in the database; no cut-off is given here.

In test [1] the target is MAP kinase p38 (Mus musculus) (UniProt P47811+O08911+Q9WUI1+Q9Z1B7). The test is described as follows: Increase in p38 MAPK phosphorylation in mouse B16 cells at 4 to 8 hrs. The test is classed as cell-based.
Test [2] relates to B16. The test is described as follows: Increase in tyrosinase activity in mouse B16 cells at 10 uM after 24 to 96 hrs. The test is classed as functional, cell-based.
The subject of test [3] is B16. Briefly: Melanogenesis stimulation activity in mouse B16 cells at 2 to 10 uM. The test is classed as functional, cell-based.
Test [4] relates to B16. The test is described as follows: Induction of tyrosinase mRNA expression in mouse B16 cells in presence of SB-203580. The test is classed as functional, cell-based.
Test [5] deals with B16. Briefly: Increase in melanin level in mouse B16 cells at 10 uM after 48 to 96 hrs. The test is classed as functional, cell-based.
The subject of test [6] is B16. The test is described as follows: Increase in tyrosinase mRNA expression in mouse B16 cells at 10 uM after 12 hrs. The test is classed as functional.
In test [7] the test system is B16. The test is described as follows: Increase in tyrosinase expression in mouse B16 cells at 10 uM after 48 hrs. The test is classed as functional.

For the molecule `O[C@H]1OC[C@H](Cc2ccc3c(c2)OCO3)[C@H]1Cc1ccc2c(c1)OCO2`, the result (in test [1]; with B16 [2]; with B16 [3]; in the test with B16 [5]) was Active. Moreover, the outcome in the test on B16 [4] was inactive. Moreover, the Fold change in the test on B16 [6] is 1.8; in the test with B16 [7] it was 6.2.

The values are drawn from ChEMBL document CHEMBL1149593, “Mechanism of the melanogenesis stimulation activity of (-)-cubebin in murine B16 melanoma cells” (2007).
